1 molecule from patent US11304926B2, “Application of transient receptor potential cation channel TRPV3 in developing drug for preventing or treating psoriasis” (CHINA PHARMACEUTICAL UNIVERSITY, priority 2019, dated 2022) can be followed below.

Holding throughout (format): in vivo
The test system of assay [1] is mouse psoriasis model induced by 5% IMQ. The assay is described as follows: Histopathological examination (HE staining, epidermal thickness) of mouse psoriasis model under drug intervention. The conditions noted are these: subcutaneous injection, 5% IMQ model. The text has this:
After sacrifice of the mice, skin tissues were collected, fixed with 10% (mass fraction) paraformaldehyde solution, embedded in paraffin, and then subjected to 3 μm slicing and HE staining. An Eclipse Ti inverted microscope (Nikon Corporation, Tokyo, Japan) was used to observe and take a photo at 400-times magnification, and NIS-element BR software (Nikon Corporation, Tokyo, Japan) was used to measure an epidermal thickness of the skin. Six fields of view were randomly selected for each section. […] It should be noted that measurement data was represented by mean±standard deviation (mean±SD), and was detected by One-Way ANOVA, wherein ** represented that P<0.01, which was relative to the vaseline group.

For assay [2] the test system is unchanged. The assay is described as follows: mRNA level of related inflammatory factors (qPCR) at lesion of mouse psoriasis model. The conditions noted are these: 5% IMQ model. The procedure:
20 mg of skin tissues were grinded to powder with liquid nitrogen, added with 0.5 mL of Trizol (Vazyme, article number: R401-01), and incubated on ice for 10 minutes. A split product was transferred to a 1.5 mL RNase-free centrifuge tube, added with 100 μL of chloroform, then shaken vigorously for 15 seconds, stood on ice for 2 minutes, and then centrifuged at 4° C. at 12000 rpm for 10 minutes. A water phase on an upper layer was absorbed into a new 1.5 mL RNase-free centrifuge tube, added with the same amount of isopropanol to precipitate RNA, and then centrifuged at 4° C. at 12000 rpm for 10 minutes. A supernatant was discarded, 500 μL of 75% ethyl alcohol prepared with DEPC water was added to wash the RNA precipitate, and then centrifuged at 4° C. at 12000 rpm for 5 minutes. A supernatant was discarded, the RNA precipitate was slightly dried, and the RNA was dissolved with 10 μL of DEPC water. 1 μL of the mixture was subjected to concentration detection by a detection instrument which was Nano-100 ultra-micro spectrophotometer (Hangzhou Aosheng Instrument Co., Ltd., article number: AS-11010). Another 500 ng of the RNA was subjected to a reverse transcription reaction, which was operated according to instructions of HiScript® II One Step RT-PCR Kit (Vazyme, article number: P611-01). A reverse transcription product was stored at −20° C. for later use. […]
Background: Real-time PCR tracks product formation cycle by cycle.

The test system is the same in assay [3]. The assay is described as follows: Content of related inflammatory factors (ELISA) in skin of mouse psoriasis model.
Experimental: Contents of IL17, IL23, CXCL15 and myeloperoxidase (MPO) in the skin of the mouse were detected by enzyme-linked immunosorbent assay (ELISA), and ELISA kits for various inflammatory factors were all purchased from ELISA Biotechnology Co., Ltd. Specific operation steps were briefly described as follows according to instructions: 50 mg of fresh skin sample was added with 450 μL of PBS (pH=7.2 to 7.4), homogenized on ice, and centrifuged at 5000 rpm for 15 minutes, and then a supernatant was used for detection. A standard substance was diluted according to a proportion, and a blank well, a standard substance well and a well for sample to be detected were set respectively. 50 μL of standard substance was accurately loaded to an ELISA coating plate, and 40 μL of sample diluent was added into the well for sample to be detected firstly, and then added with 10 μL of sample to be detected (a final dilution concentration of the sample was 5 times). The sample was loaded to bottoms of the wells in the ELISA plate without touching walls of the wells to the greatest extent, and then shaken and mixed gently. After sealing the plate with a microplate sealer, the mixture was incubated at 37° C. for 30 minutes. A 30-times concentrated cleaning solution was diluted 30 times with distilled water for later use. The microplate sealer was carefully removed, the liquid was discarded, and the remaining was subjected to spin-drying, and the cleaning solution was fully filled into each well, stood for 30 seconds and then discarded. The steps were repeated for 5 times, and then the mixture was patted dry. 50 μL of ELISA reagent was added into each well, except for the blank well. After sealing the plate with a microplate sealer, the mixture was incubated at 37° C. for 30 minutes. The microplate sealer was carefully removed, the liquid was discarded, and the remaining was subjected to spin-drying, and the cleaning solution was fully filled into each well, stood for 30 seconds and then discarded. […] An absorbance (OD value) of each well was measured sequentially at a wavelength of 450 nm. […]
[4] abbreviates: ELISA, vs modeling mouse applied with IMQ.

Take `O=c1cc(-c2ccc(O)cc2)oc2cc(O)c(O)c(O)c12` [Scutellarein]: in assay [1], the “epidermal thickness at lesion part” value is on record as “significantly reduce” and the “pathological changes of the skin induced by imiquimod” value is on record as “could improve the above pathological changes”. For the same molecule, in assay [2], the “transcription (mRNA level) of the related inflammatory factors” value was “obviously reduce”. The “secretion of the related inflammatory factors” value in assay [3] (5% IMQ model) is reported as “obviously reduce”. In assay [3] (setting [4]), the “content of CXCL15 in the skin” value is reported as “significantly lower” and the “content of MPO in the skin” value is “significantly lower”.
